In ChEMBL document CHEMBL1201862, “PubChem BioAssay data set” (2004):
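Compound exposure: 48 hours, 5 concentrations, 96-well plates. GI50 is the concentration that inhibits growth by half.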 Activity calls are given as the source filed them. No stated cut-off is given here; in the data, active = GI50 up to about 1.1 µM and inactive = higher.

What was measured:
Experiment in all cases: growth of human tumour cells (NCI), 48 h
DU-145 = tested on: DU-145
T47D = tested on: T47D
RPMI-8226 = tested on: RPMI-8226
MDA-MB-435 = tested on: MDA-MB-435
LOX IMVI = tested on: LOX IMVI
SNB-19 = tested on: SNB-19
NCI-H460 = tested on: NCI-H460
UO-31 = tested on: UO-31
NCI-H522 = tested on: NCI-H522
RXF 393 = tested on: RXF 393
A549 = tested on: A549
OVCAR-3 = tested on: OVCAR-3
SF-539 = tested on: SF-539
Hs-578T = tested on: Hs-578T
SK-OV-3 = tested on: SK-OV-3
786-0 = tested on: 786-0
HOP-62 = tested on: HOP-62
IGROV-1 = tested on: IGROV-1
SK-MEL-28 = tested on: SK-MEL-28
SF-268 = tested on: SF-268

Row | SMILES | GI50 (DU-145) | GI50 (T47D) | GI50 (RPMI-8226) | GI50 (MDA-MB-435) | GI50 (LOX IMVI) | GI50 (SNB-19) | GI50 (NCI-H460) | GI50 (UO-31) | GI50 (NCI-H522) | GI50 (RXF 393) | GI50 (A549) | GI50 (OVCAR-3) | GI50 (SF-539) | GI50 (Hs-578T) | GI50 (SK-OV-3) | GI50 (786-0) | GI50 (HOP-62) | GI50 (IGROV-1) | GI50 (SK-MEL-28) | GI50 (SF-268)
1 | CN(C)CCCN1C(=S)N(CCCN(C)C)c2c3cc(O)ccc3nc3c([N+](=O)[O-])ccc1c23 | 2.47 µM (inactive) | 1.44 µM (inactive) | 4.46 µM (inactive) | 4.2 µM (inactive) | 1.26 µM (inactive) | 2.06 µM (inactive) | 0.34 µM (active) | 2.87 µM (inactive) | 1.32 µM (inactive) | 3.03 µM (inactive) | 0.743 µM (active) | 1.68 µM (inactive) | 1.29 µM (inactive) | 5.61 µM (inactive) | 4.11 µM (inactive) | 1.07 µM (active) | 2.61 µM (inactive) | 0.7 µM (active) | 2.58 µM (inactive) | 1.53 µM (inactive)
2 | CCOC(=O)C1=C(C)NC(=S)NC1c1cccc(O)c1 (stereo not given) [MONASTROL] | 76.6 µM (inactive) | 34.9 µM (inactive) | 31 µM (inactive) | 17.2 µM (inactive) | 72.8 µM (inactive) | 76.4 µM (inactive) | 39.8 µM (inactive) | > 100 µM (inactive) | 30.3 µM (inactive) | 25.5 µM (inactive) | 52.1 µM (inactive) | 50.9 µM (inactive) | 44.8 µM (inactive) | 45.7 µM (inactive) | 57.8 µM (inactive) | 57.9 µM (inactive) | 68.1 µM (inactive) | 51.1 µM (inactive) | 81.5 µM (inactive) | 56.5 µM (inactive)
